For 1 cell line, relative viability results are on record in the supplement of paper PMC10307832.

What all share (assay): relative viability (nuclei count vs DMSO), 5 days (fraction); higher = more cells survive
Compound in the test “Pictilisib + Trametinib”: CS(=O)(=O)N1CCN(Cc2cc3nc(-c4cccc5[nH]ncc45)nc(N4CCOCC4)c3s2)CC1 [Pictilisib] + CC(=O)Nc1cccc(-n2c(=O)n(C3CC3)c(=O)c3c(Nc4ccc(I)cc4F)n(C)c(=O)c(C)c32)c1 [Trametinib] (partner 0.02 µM)
The procedure, abridged: (§1)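 One day after seeding in 1536-well plates, lung cancer cell lines were dosed by pin tool. Dosing was either single-drug or a fixed anchor-drug dose plus five library-drug doses (not always all listed) in √10 steps. After 5 days, nuclei were stained in one fix-and-stain step and counted on 4× images, and relative viability is the nuclei count of treated wells over that of vehicle wells, given as the median of duplicate plates.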

Compound in the test “Pictilisib + Lapatinib”: CS(=O)(=O)N1CCN(Cc2cc3nc(-c4cccc5[nH]ncc45)nc(N4CCOCC4)c3s2)CC1 [Pictilisib] + CS(=O)(=O)CCNCc1ccc(-c2ccc3ncnc(Nc4ccc(OCc5cccc(F)c5)c(Cl)c4)c3c2)o1 [Lapatinib] (partner 2 µM)
The procedure, abridged:
as §1

Compound in the test “Pictilisib + Phenformin”: CS(=O)(=O)N1CCN(Cc2cc3nc(-c4cccc5[nH]ncc45)nc(N4CCOCC4)c3s2)CC1 [Pictilisib] + N=C(N)NC(=N)NCCc1ccccc1 [Phenformin] (partner 250 µM)
Put shortly:
as §1

Compound in the test “MK-2206 + Luminespib”: NC1(c2ccc(-c3nc4ccn5c(=O)[nH]nc5c4cc3-c3ccccc3)cc2)CCC1 [MK-2206] + CCNC(=O)c1noc(-c2cc(C(C)C)c(O)cc2O)c1-c1ccc(CN2CCOCC2)cc1 [Luminespib] (partner 0.01 µM)
The procedure, abridged:
as §1

Compound in the test “MK-2206 + Decitabine”: NC1(c2ccc(-c3nc4ccn5c(=O)[nH]nc5c4cc3-c3ccccc3)cc2)CCC1 [MK-2206] + Nc1ncn([C@H]2C[C@H](O)[C@@H](CO)O2)c(=O)n1 [Decitabine] (partner 2 µM)
Put shortly: as §1

Turning to UMC-11, the relative viability with Pictilisib + Trametinib (first compound 0.02 µM) worked out at 0.671; in the test with Pictilisib + Trametinib (first compound 0.06325 µM), 0.872; in the test with Pictilisib + Trametinib (first compound 0.6325 µM), 0.735; with Pictilisib + Trametinib (first compound 2 µM) it was 0.674; in the test with Pictilisib + Lapatinib (first compound 0.02 µM) it was 1.09; with Pictilisib + Lapatinib (first compound 0.06325 µM), 1.21. In addition, the relative viability with Pictilisib + Lapatinib (first compound 0.6325 µM) was 1.03; with Pictilisib + Lapatinib (first compound 2 µM), 0.887; with Pictilisib + Phenformin (first compound 0.02 µM) it was 0.331; with Pictilisib + Phenformin (first compound 0.06325 µM), 0.346; in the test with Pictilisib + Phenformin (first compound 0.6325 µM), 0.312; in the test with Pictilisib + Phenformin (first compound 2 µM), 0.315. In addition, the relative viability came out at 1 in the test with MK-2206 + Luminespib (first compound 0.01 µM); 0.944 with MK-2206 + Luminespib (first compound 0.03162 µM); 1.12 in the test with MK-2206 + Luminespib (first compound 0.3162 µM); 1.1 with MK-2206 + Luminespib (first compound 1 µM); 0.669 with MK-2206 + Decitabine (first compound 0.01 µM); 0.643 with MK-2206 + Decitabine (first compound 0.03162 µM). Also, the relative viability came to 0.569 with MK-2206 + Decitabine (first compound 0.3162 µM) and 0.716 with MK-2206 + Decitabine (first compound 1 µM).
